Assay results taken from ChEMBL document CHEMBL4482321, “Compounds and methods for treatment of cancer by inhibiting atg4b and blocking autophagy” (2017).
pIC50: −log10 of the molar value. Calls of active or inactive are those of the source. The rule behind the calls is not given here.

Assays:
[1] = target: T1, Cysteine protease ATG4B (Homo sapiens) (UniProt Q9Y4P1); test: Inhibition of ATG4B (unknown origin) at 100 uM incubated up to 1 hr in presence of fluorescent protein substrate by FRET-based-LC3 cleavage assay relative to control
T1 sequence (whole entry): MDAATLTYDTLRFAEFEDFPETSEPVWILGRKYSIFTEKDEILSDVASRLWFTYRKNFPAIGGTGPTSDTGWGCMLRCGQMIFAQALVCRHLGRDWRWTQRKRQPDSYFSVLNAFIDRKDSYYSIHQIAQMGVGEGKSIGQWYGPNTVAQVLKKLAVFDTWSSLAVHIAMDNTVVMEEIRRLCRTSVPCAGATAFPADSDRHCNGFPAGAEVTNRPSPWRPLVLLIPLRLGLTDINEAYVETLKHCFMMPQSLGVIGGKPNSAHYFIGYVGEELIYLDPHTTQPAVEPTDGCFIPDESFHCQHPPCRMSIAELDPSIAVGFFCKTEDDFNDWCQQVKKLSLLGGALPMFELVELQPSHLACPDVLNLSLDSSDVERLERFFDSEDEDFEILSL

[2] = target: T1, Cysteine protease ATG4B (Homo sapiens); test: Inhibition of ATG4B (unknown origin) at 1.6 uM incubated up to 1 hr in presence of fluorescent protein substrate by FRET-based-LC3 cleavage assay relative to control
K562 [3] = test: Synergistic cytotoxicity against human K562 cells assessed as reduction in cell viability at 5 to 10 uM in presence of 0.5 uM imatinib incubated for 72 hrs by trypan blue staining based assay relative to compound alone; type: functional
[4] = Cytotoxicity against human MDA-MB-231-R8 cells assessed as induction of cell killing incubated for 72 hrs by crystal violet staining based assay; type: functional
K562 [5] = test: Synergistic induction of apoptosis in human K562 cells assessed as reduction in cell viability at 5 to 10 uM in presence of 0.5 uM imatinib incubated for 72 hrs by Annexin V-APC and propidium iodide staining based flow cytometry relative to compound alone; type: functional
MDA-MB-231 [6] = test: Inhibition of autophagic flux in wortmannin-treated human MDA-MB-231 cells assessed as increase in p62 levels at 50 uM by Western blot analysis; type: functional, cell-based
MDA-MB-231 [7] = test: Inhibition of autophagic flux in wortmannin-treated human MDA-MB-231 cells assessed as increase in LC3B-II levels at 50 uM by Western blot analysis; type: functional, cell-based
Cysteine protease ATG4B = target: T2, Cysteine protease ATG4B (Homo sapiens, UniProt Q9Y4P1); test: Inhibition of ATG4B (unknown origin) incubated up to 1 hr in presence of fluorescent protein substrate by FRET-based-LC3 cleavage assay
T2 sequence (Q9Y4P1 whole entry): T1 sequence (whole entry)

MDA-MB-231 [8] = test: Inhibition of autophagic flux in bafilomycin A-treated human MDA-MB-231 cells assessed as increase in p62 levels at 50 uM by Western blot analysis; type: functional, cell-based
[9] = Cytotoxicity against human SUM149PT-R75 cells assessed as induction of cell killing incubated for 72 hrs by crystal violet staining based assay; type: functional
Homo sapiens [10] = species on record: Homo sapiens; test: Cytotoxicity against human CD34+ CML cells obtained from IM-nonresponding patient assessed as reduction in colony forming cells at 10 uM in presence of 5 imatinib incubated for 12 to 14 days; type: functional, cell-based
BV-173 = test: Cytotoxicity against human BV173 cells assessed as reduction in colony forming cells at 5 to 10 uM in presence of 0.25 to 0.5 uM imatinib incubated for 2 weeks; type: functional, cell-based
Homo sapiens [11] = species on record: Homo sapiens; test: Cytotoxicity against human CD34+ CML cells obtained from IM-nonresponding patient assessed as reduction in colony forming cells at 10 uM in presence of 150 nM DA incubated for 12 to 14 days; type: functional, cell-based
SUM149PT = test: Cytotoxicity against human SUM149PT cells assessed as induction of cell killing incubated for 72 hrs by crystal violet staining based assay; type: functional
Bone marrow cell = test: Cytotoxicity against human CD34+ normal bone marrow cells […] assessed as reduction in colony forming cells up to 10 uM incubated for 12 to 14 days; type: cell-based
MDA-MB-231 [12] = test: Cytotoxicity against human MDA-MB-231 cells assessed as induction of cell killing incubated for 72 hrs by crystal violet staining based assay; type: functional; conditions: MDA-MB-231, 72 h
MDA-MB-231 [13] = test: Inhibition of autophagic flux in bafilomycin A-treated human MDA-MB-231 cells assessed as increase in LC3B-II levels at 50 uM by Western blot analysis; type: functional, cell-based

SMILES | inhibition [1] [%] | inhibition [2] [%] | pIC50 (Cysteine protease ATG4B) | pIC50 [4] | pIC50 [9] | pIC50 (SUM149PT) | pIC50 (MDA-MB-231 [12]) | further results
O=C(O)CCC(NC(=O)Nc1ncc([N+](=O)[O-])s1)C(=O)O (stereo not drawn) | 27 | 10 |  |  |  |  |  | 
O=C(Nc1ccccc1)Nc1ncc([N+](=O)[O-])s1 | 21 | 17 |  |  |  |  |  | 
COc1ccc(CNC(=O)Nc2ncc([N+](=O)[O-])s2)cc1 |  |  | 5.80 | 5.04 to 5.23 | 4.45 to 4.58 | 4.65 to 4.82 | 4.63 to 4.75 | 
O=C(Nc1ccccn1)Nc1ncc([N+](=O)[O-])s1 | 3 | 0 |  |  |  |  |  | 

The next lines start with results.

inhibition [1] [%] | inhibition [2] [%] | pIC50 (Cysteine protease ATG4B) | SMILES | pIC50 [4] | pIC50 [9] | pIC50 (SUM149PT) | pIC50 (MDA-MB-231 [12]) | further results
 |  | 5.77 | O=C(NCc1ccccc1)Nc1ncc([N+](=O)[O-])s1 | 4.51 to 4.63 | 4.47 to 4.61 | 4.48 to 4.59 | 4.23 to 4.37 | Activity (K562 [3]): Active; Activity (K562 [5]): Active; Activity (MDA-MB-231 [6]): Active; Activity (MDA-MB-231 [7]): Active; Activity (MDA-MB-231 [8]): Active; Activity (Homo sapiens [10]): Active; Activity (BV-173): Active; Activity (Homo sapiens [11]): Active; Activity (Bone marrow cell): Non-Toxic; Activity (MDA-MB-231 [13]): Active
17 | 0 |  | O=C(Nc1ncc([N+](=O)[O-])s1)NC(Cc1ccccc1)C(=O)O (stereo not drawn) |  |  |  |  | 
